Measurements as given in US20210213104A1, “GLUCAGON AND GLP-1 CO-AGONISTS FOR THE TREATMENT OF CHRONIC KIDNEY DISEASE AND DIABETIC KIDNEY DISEASE IN TYPE 2 DIABETES” (MEDIMMUNE LIMITED, priority 2020, published 2021).
Values joined by “and” are separate entries in the source; they are usually repeats but may differ in a detail not shown here. Equal entries are not always repeated.

Assays:
[1] = system: subjects with T2DM and renal impairment; assay: Phase 2a: HbA1c blood test; type: in vivo, human; details: ITT; for HbA1c LS Mean Change / HbA1c Change from Baseline, Mean / HbA1c Difference in LS Mean Change (vs Placebo): Day 1 to Day 32; for HbA1c LS Mean Change: ANCOVA
Protocol: (§1) Cotadutide was titrated from 50 μg up to 300 μg and administered once daily by subcutaneous (SC) injection over 32 days.
(§2) Cotadutide was administered at 50 μg once daily for 4 days, followed by 100 μg daily for 7 days, 200 μg daily for 7 days, and 300 μg daily for 14 days (n=20). Placebo was administered one daily for 32 days (n=20). Cotadutide and placebo were administered in the morning. Dosing commenced following predose baseline vital signs, blood tests (including HbA1c), an electrocardiogram (ECG), body weight measurement, and bioimpedance spectroscopy (BIS). Subjects then returned for daily dosing or remained overnight locally until Day 5, and thereafter, had visits at weekly intervals until a maintenance dose of 300 μg was established. Thus, Cotadutide or placebo was administered at the study site by study personal for the first four doses and on site on Days 5, 12, 19, and 32. At all other times, subjects preformed dosing at home.
Blood samples were collected to evaluate blood glucose (fasting) and HbA1c levels.

[2] = system: diet induced obese (DIO) mice; assay: Hyperinsulinemic clamps in diet induced obese (DIO) mice; type: in vivo
Protocol: Following 28 days of daily dosing with Cotadutide (10 nmol/kg), Liraglutide (5 nmol/kg; GLP-1 agonist) or g1437 (5 nmol/kg; a Gcg analog), mice underwent continuous infusion of 4 mU/kg/min insulin and [3H]-glucose to assess glucose turnover. Tissue-specific glucose uptake was assessed using 14C-2-deoxyglucose.

Phase 2a: body weight = type: in vivo, human; details: for Weight, Absolute Change From Day 1, Difference in LS Mean Change (vs Placebo) / Weight, Absolute Change From Day 1, LS Mean Change / Weight, Percent Change from Day 1, Difference in LS Mean Change (vs Placebo) / Weight, Percent Change from Day 1, LS Mean Change: ANCOVA; for Weight, Absolute Change From Day 1, Difference in LS Mean Change (vs Placebo) / Weight, Absolute Change From Day 1, LS Mean Change / Weight, Percent Change from Day 1, Difference in LS Mean Change (vs Placebo) / Weight, Percent Change from Day 1, LS Mean Change / Weight, Absolute Change From Day 1, Mean / Weight, Absolute Change From Day 1, Median / Weight, Percent Change from Day 1, Mean / Weight, Percent Change from Day 1, Median / Weight, End of Dosing (Day 33), Mean / Weight, End of Dosing (Day 33), Median: ITT
Protocol: as §1, §2
Weight was measured after the subject had toileted and removed bulky clothing, including shoes. Whenever possible, the same calibrated scale was used for each measurement for any given subject.

brown adipose tissue = assay: [^18F]FDG uptake by PET imaging (separate study); type: in vivo, mice
Excerpt: Finally, glucose uptake was elevated in brown adipose tissue in Cotadutide treated mice, which was confirmed in a separate study of [^18F]FDG uptake by PET imaging.

[3] = system: subjects with T2DM and renal impairment; assay: Phase 2a: total daily insulin dose adjustment; type: in vivo, human
Protocol: The effect of Cotadutide on insulin dose adjustment was evaluated for subjects on ≥20 U/day insulin. […] The mean percent reduction in total daily insulin dose from baseline until the end of dosing was statistically significant compared to placebo, especially in the HbA1c<8.0% subgroup (Table 15).

[4] = Day 1 to Day 33, Insulin Dose < 20 U/day subgroup
[5] = Day 1 to Day 33, Insulin Dose ≥ 20 U/day subgroup
[6] = Insulin Dose < 20 U/day subgroup
[7] = Insulin Dose ≥ 20 U/day subgroup

CCCCCCCCCCCCCCCC(=O)N[C@@H](CCC(=O)NCCCC[C@H](NC(=O)[C@H](CC(=O)O)NC(=O)[C@H](CO)NC(=O)[C@@H](NC(=O)[C@H](Cc1ccccc1)NC(=O)[C@@H](NC(=O)CNC(=O)[C@H](CCC(N)=O)NC(=O)[C@H](CO)NC(=O)[C@@H](N)Cc1c[nH]cn1)[C@@H](C)O)[C@@H](C)O)C(=O)N[C@@H](CO)C(=O)N[C@@H](CCC(=O)O)C(=O)N[C@@H](Cc1ccc(O)cc1)C(=O)N[C@@H](CC(C)C)C(=O)N[C@@H](CC(=O)O)C(=O)N[C@@H](CO)C(=O)N[C@@H](CCC(=O)O)C(=O)N[C@@H](CCCNC(=N)N)C(=O)N[C@@H](C)C(=O)N[C@@H](CCCNC(=N)N)C(=O)N[C@@H](CC(=O)O)C(=O)N[C@@H](Cc1ccccc1)C(=O)N[C@H](C(=O)N[C@@H](C)C(=O)N[C@@H](Cc1c[nH]c2ccccc12)C(=O)N[C@@H](CC(C)C)C(=O)N[C@@H](CCC(=O)O)C(=O)N[C@@H](C)C(=O)NCC(=O)NCC(=O)O)C(C)C)C(=O)O [Cotadutide]
HbA1c LS Mean Change ([1]; Insulin Dose < 20 U/day): −0.66% | HbA1c LS Mean Change ([1]; Insulin Dose ≥ 20 U/day): −0.57% | HbA1c LS Mean Change ([1]; Total): −0.65% and −0.7% | HbA1c LS Mean Change ([1]; Total, listed as MEDI0382): −0.65% | HbA1c Change from Baseline, Mean ([1]; Insulin Dose < 20 U/day): −0.829% | HbA1c Difference in LS Mean Change (vs Placebo) ([1]; Insulin Dose < 20 U/day): −0.59% | HbA1c Difference in LS Mean Change (vs Placebo) ([1]; Insulin Dose ≥ 20 U/day): −0.55% | HbA1c Change from Baseline, Mean ([1]; Total): −0.653% | HbA1c Difference in LS Mean Change (vs Placebo) ([1]; Total): −0.66% | Hemoglobin A1C, Day 32, Mean ([1]; Insulin Dose < 20 U/day): 6.943% | Hemoglobin A1C, Day 32, Median ([1]; Insulin Dose < 20 U/day): 6.900% | Hemoglobin A1C, Day 32, Mean ([1]; Insulin Dose ≥ 20 U/day): 7.392% | Hemoglobin A1C, Day 32, Median ([1]; Insulin Dose ≥ 20 U/day): 7.300% | Hemoglobin A1C, Day 32, Mean ([1]; Total): 7.226% | Hemoglobin A1C, Day 32, Median ([1]; Total): 7.200% | insulin sensitivity [2]: improves insulin sensitivity | total insulin levels during the clamp ([2]; 4 mU/kg/min insulin infusion): remained lower | glucose uptake in brown adipose tissue ([2]; 14C-2-deoxyglucose): elevated | Fasting insulin compared with vehicle ([2]; 28 days daily dosing): dramatically lower | glucose disposal rate ([2]; clamp): increased | glucose infusion rate to maintain euglycemia ˜130 mg/dL ([2]; clamp): significantly higher | weight loss, percentage (Phase 2a: body weight; <20 U/day Insulin group): −5.38% | Weight, Absolute Change From Day 1, Difference in LS Mean Change (vs Placebo) (Phase 2a: body weight; [4]): -3.99 kg | Weight, Absolute Change From Day 1, LS Mean Change (Phase 2a: body weight; [4]): -4.72 kg | Weight, Percent Change from Day 1, Difference in LS Mean Change (vs Placebo) (Phase 2a: body weight; [4]): −4.74% | Weight, Percent Change from Day 1, LS Mean Change (Phase 2a: body weight; [4]): −5.38% | Weight, Absolute Change From Day 1, Mean (Phase 2a: body weight; [4]): -4.74 kg | Weight, Absolute Change From Day 1, Median (Phase 2a: body weight; [4]): -4.50 kg | Weight, Percent Change from Day 1, Mean (Phase 2a: body weight; [4]): −5.26% | Weight, Percent Change from Day 1, Median (Phase 2a: body weight; [4]): −4.53% | Weight, Absolute Change From Day 1, Difference in LS Mean Change (vs Placebo) (Phase 2a: body weight; [5]): -2.79 kg | Weight, Absolute Change From Day 1, LS Mean Change (Phase 2a: body weight; [5]): -2.66 kg | Weight, Percent Change from Day 1, Difference in LS Mean Change (vs Placebo) (Phase 2a: body weight; [5]): −2.66% | Weight, Percent Change from Day 1, LS Mean Change (Phase 2a: body weight; [5]): −2.69% | Weight, Absolute Change From Day 1, Mean (Phase 2a: body weight; [5]): -2.60 kg | Weight, Absolute Change From Day 1, Median (Phase 2a: body weight; [5]): -1.90 kg | Weight, Percent Change from Day 1, Mean (Phase 2a: body weight; [5]): −2.61% | Weight, Percent Change from Day 1, Median (Phase 2a: body weight; [5]): −2.00% | Weight, Absolute Change From Day 1, Difference in LS Mean Change (vs Placebo) (Phase 2a: body weight; Day 1 to Day 33, Total): -3.28 kg | Weight, Absolute Change From Day 1, LS Mean Change (Phase 2a: body weight; Day 1 to Day 33, Total): -3.41 kg | Weight, Percent Change from Day 1, Difference in LS Mean Change (vs Placebo) (Phase 2a: body weight; Day 1 to Day 33, Total): −3.47% | Weight, Percent Change from Day 1, LS Mean Change (Phase 2a: body weight; Day 1 to Day 33, Total): −3.69% | Weight, Absolute Change From Day 1, Mean (Phase 2a: body weight; Day 1 to Day 33, Total): -3.39 kg | Weight, Absolute Change From Day 1, Median (Phase 2a: body weight; Day 1 to Day 33, Total): -3.60 kg | Weight, Percent Change from Day 1, Mean (Phase 2a: body weight; Day 1 to Day 33, Total): −3.59% | Weight, Percent Change from Day 1, Median (Phase 2a: body weight; Day 1 to Day 33, Total): −3.68% | LS mean reduction in absolute body weight (Phase 2a: body weight; Day 1 to Day 33, all subjects): -3.41 kg | LS mean reduction in percentage body weight (Phase 2a: body weight; Day 1 to Day 33, all subjects): −3.69% and −3.7% | Weight, End of Dosing (Day 33), Mean (Phase 2a: body weight; [6]): 91.27 kg | Weight, End of Dosing (Day 33), Median (Phase 2a: body weight; [6]): 88.70 kg | Weight, End of Dosing (Day 33), Mean (Phase 2a: body weight; [7]): 94.13 kg | Weight, End of Dosing (Day 33), Median (Phase 2a: body weight; [7]): 96.15 kg | Weight, End of Dosing (Day 33), Mean (Phase 2a: body weight; Total): 93.08 kg | Weight, End of Dosing (Day 33), Median (Phase 2a: body weight; Total): 94.10 kg | weight loss, percentage (Phase 2a: body weight; ≥20 U/day Insulin group): −2.69% | [^18F]FDG uptake by PET imaging, brown adipose tissue (brown adipose tissue): confirmed | reduction in insulin dose ([3]; over 32 days, P=0.012): 35.2% | percentage reduction from baseline in total daily insulin dose at the end of treatment ([3]; participants with insulin dose of at least 20 U/day, Day −2 to end of treatment): −35.2%
